Measured values as given in patent EP4782437A1, “HETEROARYL COMPOUND, AND PREPARATION METHOD THEREFOR AND USE THEREOF IN MEDICINE” (Jiangsu Hengrui Pharmaceuticals Co., Ltd., priority 2023, dated 2025).

Target: hERG potassium channels (Homo sapiens, UniProt Q12809)
Experiment: hERG channel inhibition, automated patch-clamp in HEK293-hERG stable transfected cell line
Details: read-out: IC50 values of blocking effects on hERG potassium currents, whole-cell patch-clamp, tail currents

Sequence of hERG potassium channels (Q12809 whole entry): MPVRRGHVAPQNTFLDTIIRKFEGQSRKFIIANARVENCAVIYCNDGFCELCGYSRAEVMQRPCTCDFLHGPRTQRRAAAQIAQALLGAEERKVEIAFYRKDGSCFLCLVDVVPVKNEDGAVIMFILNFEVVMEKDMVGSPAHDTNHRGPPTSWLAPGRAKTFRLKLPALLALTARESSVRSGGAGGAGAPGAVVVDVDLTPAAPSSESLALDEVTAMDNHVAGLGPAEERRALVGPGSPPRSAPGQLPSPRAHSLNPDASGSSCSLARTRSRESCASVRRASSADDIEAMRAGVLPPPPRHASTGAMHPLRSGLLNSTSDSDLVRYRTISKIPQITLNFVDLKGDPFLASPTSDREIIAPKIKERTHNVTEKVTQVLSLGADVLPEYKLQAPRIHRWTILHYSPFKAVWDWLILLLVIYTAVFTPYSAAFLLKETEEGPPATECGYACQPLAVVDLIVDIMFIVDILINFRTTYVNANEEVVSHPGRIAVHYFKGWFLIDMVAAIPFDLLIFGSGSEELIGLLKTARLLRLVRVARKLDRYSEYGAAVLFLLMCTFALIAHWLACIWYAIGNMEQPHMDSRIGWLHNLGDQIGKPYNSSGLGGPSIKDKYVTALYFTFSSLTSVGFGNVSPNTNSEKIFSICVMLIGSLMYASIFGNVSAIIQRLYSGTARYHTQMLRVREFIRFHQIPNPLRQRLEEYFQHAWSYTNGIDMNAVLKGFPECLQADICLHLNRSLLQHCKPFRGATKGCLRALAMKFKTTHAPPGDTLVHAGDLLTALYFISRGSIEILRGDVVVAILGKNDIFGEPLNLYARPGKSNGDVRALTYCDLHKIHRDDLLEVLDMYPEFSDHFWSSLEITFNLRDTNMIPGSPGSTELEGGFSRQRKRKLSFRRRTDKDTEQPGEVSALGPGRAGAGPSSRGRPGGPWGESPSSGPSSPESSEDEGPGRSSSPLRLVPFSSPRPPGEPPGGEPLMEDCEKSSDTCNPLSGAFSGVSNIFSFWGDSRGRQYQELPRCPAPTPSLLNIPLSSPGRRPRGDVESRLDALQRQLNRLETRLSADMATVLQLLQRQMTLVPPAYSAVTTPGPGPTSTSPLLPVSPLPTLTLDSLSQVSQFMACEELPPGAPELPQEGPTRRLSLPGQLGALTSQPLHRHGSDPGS

Row | SMILES | IC50
1 | C=C(C)C(=O)NCCOc1c(N)ncnc1-c1cc(F)cc(NC(=O)c2ccc3c(c2F)OC(C)(C)C3)c1C [Example 4, N-(3-(6-amino-5-(2-(N-methacrylamido)ethoxy)pyrimidin-4-yl)-5-fluoro-2-methylphenyl)-7-fluoro-2,2-dimethyl-2,3-dihydrobenzofuran-6-carboxamide] | 15.5 µM
2 | C=C(C)C(=O)NCCOc1c(N)ncnc1-c1cc(F)cc(NC(=O)c2sc3c(c2F)CC2(CC2)C3)c1C [Example 26-1, N-(3-(6-amino-5-(2-(N-methacrylamido)ethoxy)pyrimidin-4-yl)-5-fluoro-2-methylphenyl)-3-fluoro-4,6-dihydrospiro[cyclopenta[b]thiophene-5,1'-cyclopropane]-2-carboxamide] | 14 µM
